Tests used:
[1] = tested on: antibodies in sera from SARS patients (sera 1a, 1b, 2, 6, 37, 62, London, SARS-yellow, SARS-green); type: binding, human; set-up: Binding of serum 6 to linear peptides of protein X1 of SARS-CoV Urbani / Binding of serum 37 to linear peptides of protein X1 of SARS-CoV Urbani / Binding of serum 6 to looped/cyclic peptide (PEPSCAN-ELISA) / Binding of serum 37 to looped/cyclic peptide (PEPSCAN-ELISA) / Binding of serum 37 to looped/cyclic peptides of protein X1 of SARS-CoV Urbani / Binding of serum 6 to linear peptides of protein X2 / Binding of serum 37 to linear peptides of protein X2 / Binding of serum 37 to looped/cyclic peptides of protein X2 of SARS-CoV Urbani / Binding of serum 6 to linear peptides of protein M of SARS-CoV Urbani / Binding of serum 37 to linear peptides of protein M of SARS-CoV Urbani / Binding of serum 6 to looped/cyclic peptides of protein M of SARS-CoV Urbani / Binding of serum 37 to looped/cyclic peptides of protein M of SARS-CoV Urbani / Binding of serum 6 to linear peptides of protein X3 of SARS-CoV Urbani / Binding of serum 37 to linear peptides of protein X3 of SARS-CoV Urbani / Binding of serum 37 to looped/cyclic peptides of protein X3 of SARS-CoV Urbani / Binding of serum 6 to linear peptides of protein X4 of SARS-CoV Urbani / Binding of serum 37 to linear peptides of protein X4 of SARS-CoV Urbani / Binding of serum 37 to looped/cyclic peptides of protein X4 of SARS-CoV Urbani / Binding of serum 6 to linear peptides of protein X5 of SARS-CoV Urbani / Binding of serum 37 to linear peptides of protein X5 of SARS-CoV Urbani / Binding of serum 37 to looped/cyclic peptides of protein X5 of SARS-CoV Urbani / Binding of serum 6 to linear peptides of protein N of SARS-CoV Urbani / Binding of serum 37 to linear peptides of protein N of SARS-CoV Urbani / Binding of serum 6 to linear peptide (PEPSCAN-ELISA) / Binding of serum 1a to looped/cyclic peptides of protein N of SARS-CoV Urbani / Binding of serum 1b to looped/cyclic peptides of protein N of SARS-CoV Urbani / Binding of serum 2 to looped/cyclic peptides of protein N of SARS-CoV Urbani / Binding of serum 6 to looped/cyclic peptides of protein N of SARS-CoV Urbani / Binding of serum 37 to looped/cyclic peptides of protein N of SARS-CoV Urbani / Binding of serum 62 to looped/cyclic peptides of protein N of SARS-CoV Urbani / Binding of serum London to looped/cyclic peptides of protein N of SARS-CoV Urbani / Binding of serum SARS-green to looped/cyclic peptides of protein N of SARS-CoV Urbani: unit not given here
[2] = tested on: control sera (pooled serum of ten healthy LUMC hospital workers; commercial negative donor pooled serum from the Dutch bloodbank); type: binding, human; set-up: Binding of Control serum LUMC to linear peptides / Binding of Control serum Blood-bank to linear peptides / Binding of Control serum LUMC to looped peptides / Binding of Control Serum Blood-Bank to Looped peptides / Binding of Control serum LUMC to linear peptides of the protein M of SARS-CoV Urbani / Binding of Control serum Blood-bank to linear peptides of the protein M of SARS-CoV Urbani / Binding of Control serum LUMC to looped peptides of the protein M of SARS-CoV Urbani / Binding of Control Serum Blood-Bank to Looped peptides of the protein M of SARS-CoV Urbani: unit not given here
[3] = tested on: rabbit serum obtained by immunizing a rabbit with the SARS-CoV strain Frankfurt 1; type: binding; set-up: Binding of a rabbit serum to linear peptides / Binding of a rabbit serum to looped peptides / Rabbit serum linear peptides / Rabbit serum looped peptides / Binding of a rabbit serum to linear peptides of protein N of SARS-CoV Urbani (Rabbit serum linear peptides) / Binding of a rabbit serum to looped/cyclic peptides of protein N of SARS-CoV Urbani (Rabbit serum looped peptides): unit not given here

GTIVTRPLMESELVI
Binding of serum 1a to linear peptides of protein M of SARS-CoV Urbani [1]: 0.8
Binding of serum 1b to linear peptides of protein M of SARS-CoV Urbani [1]: 0.7
Binding of serum 2 to linear peptides of protein M of SARS-CoV Urbani [1]: 0.7
Binding of serum 6 to linear peptides of protein M of SARS-CoV Urbani [1]: 0.5
Binding of serum 37 to linear peptides of protein M of SARS-CoV Urbani [1]: 0.6
Binding of serum 62 to linear peptides of protein M of SARS-CoV Urbani [1]: 0.7
Binding of serum London to linear peptides of protein M of SARS-CoV Urbani [1]: 0.3
Binding of serum SARS-green to linear peptides of protein M of SARS-CoV Urbani [1]: 0.7
Binding of serum SARS-yellow to linear peptides of protein M of SARS-CoV Urbani [1]: 0.2
Recognition of the peptide by sera of SARS-CoV infected individuals, and form (linear, looped/cyclic) in which it is recognized [1]: recognized in looped/cyclic form
Binding of Control Serum Blood-Bank to Looped peptides of the protein M of SARS-CoV Urbani [2]: 0.8
Binding of Control serum Blood-bank to linear peptides of the protein M of SARS-CoV Urbani [2]: 0.7
Binding of Control serum LUMC to linear peptides of the protein M of SARS-CoV Urbani [2]: 0.6
Binding of Control serum LUMC to looped peptides of the protein M of SARS-CoV Urbani [2]: 1.0
Rabbit serum linear peptides [3]: 0.1
Rabbit serum looped peptides [3]: 0.5

TEGDGISTPKLKEDY
Binding of serum 1a to linear peptides of protein X1 of SARS-CoV Urbani [1]: 0.5
Binding of serum 1a to looped/cyclic peptides of protein X1 of SARS-CoV Urbani [1]: 0.5
Binding of serum 1b to linear peptides of protein X1 of SARS-CoV Urbani [1]: 0.3
Binding of serum 1b to looped/cyclic peptides of protein X1 of SARS-CoV Urbani [1]: 0.4
Binding of serum 2 to linear peptides of protein X1 of SARS-CoV Urbani [1]: 0.4
Binding of serum 2 to looped/cyclic peptides of protein X1 of SARS-CoV Urbani [1]: 0.5
Binding of serum 6 to linear peptides of protein X1 of SARS-CoV Urbani [1]: 0.2
Binding of serum 6 to looped/cyclic peptides of protein X1 of SARS-CoV Urbani [1]: 0.4
Binding of serum 37 to linear peptides of protein X1 of SARS-CoV Urbani [1]: 0.4
Binding of serum 37 to looped/cyclic peptides of protein X1 of SARS-CoV Urbani [1]: 0.4
Binding of serum 62 to linear peptides of protein X1 of SARS-CoV Urbani [1]: 0.3
Binding of serum 62 to looped/cyclic peptides of protein X1 of SARS-CoV Urbani [1]: 0.4
Binding of serum London to linear peptides of protein X1 of SARS-CoV Urbani [1]: 0.2
Binding of serum London to looped/cyclic peptides of protein X1 of SARS-CoV Urbani [1]: 0.2
Binding of serum SARS-green to linear peptides of protein X1 of SARS-CoV Urbani [1]: 0.1
Binding of serum SARS-green to looped/cyclic peptides of protein X1 of SARS-CoV Urbani [1]: 0.3
Binding of serum SARS-yellow to linear peptides of protein X1 of SARS-CoV Urbani [1]: 0.0
Binding of serum SARS-yellow to looped/cyclic peptides of protein X1 of SARS-CoV Urbani [1]: 0.3
Binding of Control Serum Blood-Bank to Looped peptides [2]: 0.5
Binding of Control serum Blood-bank to linear peptides [2]: 0.2
Binding of Control serum LUMC to linear peptides [2]: 0.2
Binding of Control serum LUMC to looped peptides [2]: 0.5
Binding of a rabbit serum to linear peptides [3]: 0.1
Binding of a rabbit serum to looped peptides [3]: 0.5
